Measurements as given in patent US20250145608A1, “KRAS DEGRADING COMPOUNDS COMPRISING ANNULATED 2-AMINO-3-CYANO THIOPHENES” (Boehringer Ingelheim Int'l GmbH Corp., priority 2021, published 2025).

Key:
Format in all cases: cell-based
SAS cells = assay: SAS CTG proliferation assay (120 h) (HNSCC, wt amplified)
Experimental: SAS CTG Proliferation Assay (120 h) (HNSCC, Wt Amplified)
(§1) SAS cells (JCRB0260) are dispensed into 384-well plates, flat and clear bottom (Greiner, PNr. 781091) at a density of 300 cells per well in 60 μL DMEM:F12 (Gibco 31330-038)+10% Fetal Calf Serum (HyClone, PNr.: SH30084.03) and incubated at 37° C. in a CO2 incubator overnight. The next day, compounds (10 mM stock in DMSO) are added with the ECHO acoustic liquid handler system (Beckman Coulter), including DMSO controls. Plates are incubated for 120 h, and cell viability is measured using CellTiter-Glo luminescent cell viability reagent (Promega product code G7570). Viability (stated as percent of control) is defined as relative luminescence units RLU of each well divided by the RLU of cells in DMSO controls. IC50 values are determined from viability measurements by non-linear regression using a four-parameter model.

AsPC-1 cells = assay: AsPC-1 CTG proliferation assay (120 h) (pancreatic cancer, G12D); details: Homo sapiens, ASPC1, AsPC-1 proliferation
Experimental: AsPC-1 CTG Proliferation Assay (120 h) (Pancreatic Cancer, G12D)
The CTG assay is designed to measure quantitatively the proliferation of AsPC-1 cells (ATCC […]), using the CellTiter Glow Assay Kit (Promega G7571). Cells are grown in RPMI medium (ATCC) supplemented with Fetal Calf Serum (Life Technologies, Gibco BRL, Cat. No. 10270-106). On “day 0” 2000 AsPC-1 cells are seeded in 60 μL RPMI ATCC+10% FCS+ Penstrep in a 384-well plate, flat and clear bottom (Greiner, PNr. 781091). Cells are then incubated in the plates at 37° C. in a CO2 incubator overnight. On day 1, compounds (10 mM stock in DMSO) are added with the ECHO acoustic liquid handler system (Beckman Coulter), including DMSO controls. Plates are incubated for 120 h, and cell viability is measured using CellTiter-Glo luminescent cell viability reagent (Promega product code G7570). Viability (stated as percent of control) is defined as relative luminescence units RLU of each well divided by the RLU of cells in DMSO controls. IC50 values are determined from viability measurements by non-linear regression using a four-parameter model.

KRAS4B G12D = biological target: T1, KRAS4B G12D (Homo sapiens, UniProt P01116, G12D); assay: HiBit KRAS4B mutant spectrum degradation assay, KRAS4B G12D in GP5d cells (18 h); details: KRAS mutation G12D
T1 construct: HiBit; expressed in transfected cells; host or cells: GP5d cells (ECACC 95090715), stably transduced with lentivirus, CMV promoter
T1 sequence (P01116 1-188 isoform P01116-2 G12D): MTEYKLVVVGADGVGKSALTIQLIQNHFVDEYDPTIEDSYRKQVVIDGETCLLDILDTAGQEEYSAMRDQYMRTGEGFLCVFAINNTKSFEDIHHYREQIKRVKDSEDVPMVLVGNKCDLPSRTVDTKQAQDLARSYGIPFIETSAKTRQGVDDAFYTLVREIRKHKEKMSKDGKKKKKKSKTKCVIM
Excerpt: (§2) The therapeutically relevant mutant KRAS constructs (WT, G12C, G12D, G12V, G13D) were obtained by site directed mutagenesis using a KRAS4B WT cDNA construct as a template. GP5d cells (ECACC Cat. No. 95090715) were transduced with lentiviral vectors expressing mutant KRAS4B cDNA under control of a CMV promoter. Stably transduced cells were selected using a neomycin selectable marker encoded on the construct.
(§3) To assess PROTAC-mediated degradation of various KRAS mutants, GP5d cells stably transduced with KRAS4B constructs as described above were seeded at 25000 cells per well in 100 μL Dulbecco's Modified Eagle medium (Sigma cat. no. D6429) supplemented with 10% fetal calf serum into white bottom opaque 96 well plates (Perkin Elmer cat no. 5680). Plates were incubated at 37° C., 5% CO2 in a humidified incubator over night to allow the cells to adhere. […] Plates were further incubated at 37° C. for 18 hours. Following incubation, 100 μL per well Promega Nano-Glo HiBit lytic detection reagent mix (Promega Nano-Glo HiBit Lytic Detection System #N3050), prepared according to the manufacturer's instructions in the kit, were added. To allow for adequate cell lysis, plates were incubated on an orbital shaker for 15 min and further incubated 30 min at room temperature. Upon completion of cell lysis, luminescence was measured using an Envision plate reader using the Ultrasensitive Luminescence Protocol for 96 well plates. Luminescence levels were normalized by the values obtained with DMSO-treated samples and plotted as percent of DMSO control. DC50 values were computed using a four parametric logistic model and are reported in nM in Table 65 for representative example (Ex.) compounds of the invention. Dmax values represent the maximal extent of degradation observed and is stated as percent of control (% Ctrl.) treatments in Table 66 for representative example (Ex.) compounds of the invention.

KRAS4B G13D = biological target: T2, KRAS4B G13D (Homo sapiens, UniProt P01116, G13D); assay: HiBit KRAS4B mutant spectrum degradation assay, KRAS4B G13D in GP5d cells (18 h); details: KRAS mutation G13D
T2 construct: HiBit; expressed in transfected cells; host or cells: GP5d cells (ECACC 95090715), stably transduced with lentivirus, CMV promoter
T2 sequence (P01116 1-188 isoform P01116-2 G13D): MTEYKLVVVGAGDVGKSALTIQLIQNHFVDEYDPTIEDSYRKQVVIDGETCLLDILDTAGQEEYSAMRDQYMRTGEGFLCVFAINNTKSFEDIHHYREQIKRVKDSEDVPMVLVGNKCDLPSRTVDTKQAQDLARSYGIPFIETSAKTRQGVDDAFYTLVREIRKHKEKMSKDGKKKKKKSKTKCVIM
Excerpt: as §2, §3

KRAS4B G12V = biological target: T3, KRAS4B G12V (Homo sapiens, UniProt P01116, G12V); assay: HiBit KRAS4B mutant spectrum degradation assay, KRAS4B G12V in GP5d cells (18 h); details: KRAS mutation G12V
T3 construct: HiBit; expressed in transfected cells; host or cells: GP5d cells (ECACC 95090715), stably transduced with lentivirus, CMV promoter
T3 sequence (P01116 1-188 isoform P01116-2 G12V): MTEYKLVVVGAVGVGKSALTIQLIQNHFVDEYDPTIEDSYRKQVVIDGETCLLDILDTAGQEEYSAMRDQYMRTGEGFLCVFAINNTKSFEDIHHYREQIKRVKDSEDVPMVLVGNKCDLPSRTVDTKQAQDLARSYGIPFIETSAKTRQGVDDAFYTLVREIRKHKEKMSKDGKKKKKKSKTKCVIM
Excerpt: as §2, §3

KRAS4B G12C = biological target: T4, KRAS4B G12C (Homo sapiens, UniProt P01116, G12C); assay: HiBit KRAS4B mutant spectrum degradation assay, KRAS4B G12C in GP5d cells (18 h); details: KRAS mutation G12C
T4 construct: HiBit; expressed in transfected cells; host or cells: GP5d cells (ECACC 95090715), stably transduced with lentivirus, CMV promoter
T4 sequence (P01116 1-188 isoform P01116-2 G12C): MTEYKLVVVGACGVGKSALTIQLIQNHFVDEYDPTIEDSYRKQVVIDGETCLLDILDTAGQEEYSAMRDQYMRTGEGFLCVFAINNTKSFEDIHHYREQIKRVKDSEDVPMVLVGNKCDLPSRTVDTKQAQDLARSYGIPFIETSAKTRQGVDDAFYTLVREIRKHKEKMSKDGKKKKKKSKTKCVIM
Excerpt: as §2, §3

KRAS4B WT = biological target: T5, KRAS4B WT (Homo sapiens, UniProt P01116); assay: HiBit KRAS4B mutant spectrum degradation assay, KRAS4B WT in GP5d cells (18 h); details: KRAS mutation G12WT
T5 construct: HiBit; expressed in transfected cells; host or cells: GP5d cells (ECACC 95090715), stably transduced with lentivirus, CMV promoter
T5 sequence (P01116 1-188 isoform P01116-2): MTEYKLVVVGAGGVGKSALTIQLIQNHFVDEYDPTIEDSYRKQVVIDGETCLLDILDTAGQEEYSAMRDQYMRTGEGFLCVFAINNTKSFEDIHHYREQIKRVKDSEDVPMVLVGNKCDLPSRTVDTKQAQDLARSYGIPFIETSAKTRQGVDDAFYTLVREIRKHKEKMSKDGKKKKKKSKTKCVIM
Excerpt: as §2, §3

A375 cells = assay: A375 CTG proliferation assay (120 h) (melanoma, wt, B-Raf mutant, negative control); details: Homo sapiens, A-375, negative control cell line
Experimental: A375 CTG Proliferation Assay (120 h) (Melanoma, Wt, B-Raf Mutant, Negative Control)
as §1, with “A375” for “SAS”, “(ATCC CRL-1619)” for “(JCRB0260)”, “DMEM (Sigma D6429)+10%” for “DMEM:F12 (Gibco 31330-038)+10%”, “at logarithmic dose series using” for “with”, “HP Digital Dispenser D300 (Tecan),” for “ECHO acoustic liquid handler system (Beckman Coulter),”

Row | IC50 (AsPC-1 cells) | DC50 (KRAS4B G12D) | Dmax at 18 h (KRAS4B G12D) | DC50 (KRAS4B G13D) | Dmax at 18 h (KRAS4B G13D) | DC50 (KRAS4B G12V) | Dmax at 18 h (KRAS4B G12V) | DC50 (KRAS4B G12C) | Dmax at 18 h (KRAS4B G12C) | DC50 (KRAS4B WT) | Dmax at 18 h (KRAS4B WT) | IC50 (A375 cells) | SMILES | IC50 (SAS cells)
1 | 1800 nM | – | – | – | – | – | – | – | – | – | – | – | Cc1ncsc1-c1ccc(CNC(=O)[C@@H]2C[C@@H](O)CN2C(=O)[C@H](c2cc(OCCCN3CCCN(c4nccc(-c5noc([C@@]6(C)CCCc7sc(N)c(C#N)c76)n5)n4)[C@@H](C)C3)no2)C(C)C)cc1 (single isomer, unassigned) [I-24] | 1310 nM
2 | 93.4 nM | 1.3 nM | 96 % Ctrl. | 2.5 nM | 94 % Ctrl. | 3.8 nM | 90.5 % Ctrl. | 1.9 nM | 92.5 % Ctrl. | 0.8 nM | 96 % Ctrl. | – | Cc1ncsc1-c1ccc(CNC(=O)[C@@H]2C[C@@H](O)CN2C(=O)[C@@H](c2cc(OCCCN3CCCN(c4nccc(-c5noc([C@@]6(C)CCCc7sc(N)c(C#N)c76)n5)n4)[C@@H](C)C3)no2)C(C)C)cc1 (single isomer, unassigned) [I-25] | 17.8 nM
3 | 144 nM | 1.1 nM | 95 % Ctrl. | 1.6 nM | 93 % Ctrl. | 2.7 nM | 86 % Ctrl. | 3.7 nM | 83 % Ctrl. | 0.7 nM | 95.5 % Ctrl. | ≥ 3000 nM | Cc1ncsc1-c1ccc(CNC(=O)[C@@H]2C[C@@H](O)CN2C(=O)[C@@H](c2cc(OCCCCN3CCCN(c4nccc(-c5noc([C@@]6(C)CCCc7sc(N)c(C#N)c76)n5)n4)[C@@H](C)C3)no2)C(C)C)cc1 (single isomer, unassigned) [I-27] | 94.6 nM
4 | 42 nM | 1.3 nM | 96.1 % Ctrl. | 0.8 nM | 89.7 % Ctrl. | 2.5 nM | 90.8 % Ctrl. | 1.2 nM | 96.2 % Ctrl. | 0.5 nM | 98.0 % Ctrl. | ≥ 3000 nM | Cc1ncsc1-c1ccc([C@@H](NC(=O)[C@@H]2C[C@@H](O)CN2C(=O)[C@H](C(C)C)n2cc(OCCCCN3CCCN(c4nccc(-c5noc([C@@]6(C)CCCc7sc(N)c(C#N)c76)n5)n4)[C@@H](C)C3)nn2)[C@H](C)O)cc1 (single isomer, unassigned) [I-41] | 30.3 nM
5 | 52.1 nM | 1.3 nM | 95.8 % Ctrl. | 1.1 nM | 90.4 % Ctrl. | 2.6 nM | 89.4 % Ctrl. | 1.1 nM | 95.6 % Ctrl. | 0.5 nM | 98.1 % Ctrl. | ≥ 3000 nM | Cc1ncsc1-c1ccc([C@@H](NC(=O)[C@@H]2C[C@@H](O)CN2C(=O)[C@H](C(C)C)n2cc(OCCCN3CCCN(c4nccc(-c5noc([C@@]6(C)CCCc7sc(N)c(C#N)c76)n5)n4)[C@@H](C)C3)nn2)[C@H](O)C(C)C)cc1 (single isomer, unassigned) [I-43] | 411 nM
6 | 51.4 nM | – | – | – | – | – | – | – | – | – | – | ≥ 3000 nM | Cc1ncsc1-c1ccc([C@@H](NC(=O)[C@@H]2C[C@@H](O)CN2C(=O)[C@H](C(C)C)n2cc(OCCCCN3CCCN(c4nccc(-c5noc([C@@]6(C)CCCc7sc(N)c(C#N)c76)n5)n4)[C@@H](C)C3)nn2)[C@H](O)C(C)C)cc1 (single isomer, unassigned) [I-45] | 1810 nM
7 | 372 nM | – | – | – | – | – | – | – | – | – | – | – | Cc1ncsc1-c1ccc(CNC(=O)[C@@H]2C[C@@H](O)CN2C(=O)C(c2cc(OCCCCN3CCCN(c4nccc(-c5cc([C@@]6(C)CCCc7sc(N)c(C#N)c76)on5)n4)[C@@H](C)C3)no2)C(C)C)cc1 (stereo partly drawn) [I-4] | 628 nM
8 | 169 nM | – | – | – | – | – | – | – | – | – | – | ≥ 3000 nM | CC(C)C(C(=O)N1C[C@H](O)C[C@H]1C(=O)NCc1ccc(C#N)cc1)c1cc(OCCCCN2CCCN(c3nccc(-c4noc([C@@]5(C)CCCc6sc(N)c(C#N)c65)n4)n3)[C@@H](C)C2)no1 (stereo partly drawn) [I-16] | 29.7 nM
9 | 72 nM | – | – | – | – | – | – | – | – | – | – | 1090 nM | Cc1ncsc1-c1ccc([C@H](C)NC(=O)[C@@H]2C[C@@H](O)CN2C(=O)C(C(C)C)n2cc(OCCCCN3CCCN(c4nccc(-c5noc([C@@]6(C)CCCc7sc(N)c(C#N)c76)n5)n4)[C@@H](C)C3)nn2)cc1 (stereo partly drawn) [I-28] | 58.3 nM
10 | 97.2 nM | 1.5 nM | 96.0 % Ctrl. | 1.2 nM | 89.7 % Ctrl. | 3.5 nM | 90.5 % Ctrl. | 1.4 nM | 95.6 % Ctrl. | 0.8 nM | 97.2 % Ctrl. | ≥ 3000 nM | Cc1ncsc1-c1ccc([C@H](CO)NC(=O)[C@@H]2C[C@@H](O)CN2C(=O)[C@H](C(C)C)n2cc(OCCCCN3CCCN(c4nccc(-c5noc([C@@]6(C)CCCc7sc(N)c(C#N)c76)n5)n4)[C@@H](C)C3)nn2)cc1 [I-29] | 548 nM
11 | 69 nM | 0.8 nM | 96.1 % Ctrl. | 1 nM | 91.9 % Ctrl. | 2.2 nM | 91.0 % Ctrl. | 1.2 nM | 95.6 % Ctrl. | 0.4 nM | 97.8 % Ctrl. | ≥ 3000 nM | Cc1ncsc1-c1ccc([C@H](CO)NC(=O)[C@@H]2C[C@@H](O)CN2C(=O)[C@H](C(C)C)n2cc(OCCCC(C)N3CCCN(c4nccc(-c5noc([C@@]6(C)CCCc7sc(N)c(C#N)c76)n5)n4)[C@@H](C)C3)nn2)cc1 (stereo partly drawn) [I-30] | 15.2 nM
12 | 128 nM | – | – | – | – | – | – | – | – | – | – | ≥ 3000 nM | Cc1ncsc1-c1ccc([C@H](CCO)NC(=O)[C@@H]2C[C@@H](O)CN2C(=O)[C@H](C(C)C)n2cc(OCCCCN3CCCN(c4nccc(-c5noc([C@@]6(C)CCCc7sc(N)c(C#N)c76)n5)n4)[C@@H](C)C3)nn2)cc1 [I-38] | 58.1 nM
